Experimental data reported in PubChem BioAssay (NCI).
Values joined by “and” are separate entries in the source; they are usually repeats but may differ in a detail not shown here. Equal values may be shown once.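 Method: 48-hour compound exposure of cells in 96-well plates, five concentrations, linear interpolation of endpoints. GI50 is the concentration that inhibits growth by half. TGI denotes the concentration required for complete inhibition of growth.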

Experiments:
Experiment in all cases: NCI anticancer screen, dose series, 48 h
[1] = system: EKVX NSCLC
[2] = system: OVCAR-3 ovarian
[3] = system: SNB-19 CNS
[4] = system: SF-268 CNS
[5] = system: HL-60(TB) leukemia
[6] = system: HT29 colon
[7] = system: UACC-62 melanoma
[8] = system: MDA-MB-231 breast
[9] = system: HCT-116 colon
[10] = system: UO-31 renal

Row | Compound | GI50 [1] | TGI [1] | GI50 [2] | TGI [2] | GI50 [3] | TGI [3] | GI50 [4] | TGI [4] | GI50 [5] | TGI [5] | GI50 [6] | TGI [6] | GI50 [7] | TGI [7] | GI50 [8] | TGI [8] | GI50 [9] | TGI [9] [µM] | GI50 [10] | TGI [10]
1 | N[C@@H](CSSC[C@H](N)C(=O)N1CCn2cc(-c3ccccc3)nc2[C@@H]1CC1CCCCC1)C(=O)N1CCn2cc(-c3ccccc3)nc2[C@@H]1CC1CCCCC1 | 1.34 µM | 2.81 µM | 1.41 µM | 2.76 µM | 1.36 µM | 2.85 µM | 0.344 µM | 2.46 µM | 2.13 µM | > 19.7 µM | 1.63 µM | 3.42 µM | 0.843 µM | 2.32 µM | 1.74 µM | 3.68 µM | 1.14 µM | 2.51 | 1.69 µM | 3.61 µM
2 | CC1COCCN1CC#CCOC(=O)c1cc2ccccc2oc1=O (stereo not given) | > 100 µM | > 100 µM | > 100 µM | > 100 µM | > 100 µM | > 100 µM | > 100 µM | > 100 µM | > 100 µM | > 100 µM | > 100 µM | > 100 µM | > 100 µM | > 100 µM | > 100 µM | > 100 µM | > 100 µM | > 100 | > 100 µM | > 100 µM
3 | N#Cc1ccc(/C=C/C(=O)c2ccccc2)cc1 | 16.6 µM and 13.6 µM | 34.9 µM and 27.4 µM | 13.8 µM and 5.71 µM | 26.6 µM and 13 µM | 14.4 µM and 12.5 µM | 27.4 µM and 25.1 µM | 13.3 µM and 9.61 µM | 26.7 µM and 25.4 µM | 9.07 µM and 3.2 µM | 48.4 µM and > 33.1 µM | 2.33 µM and 2.53 µM | 6.05 µM and 7 µM | 13.5 µM and 14 µM | 26.6 µM and 27.5 µM | 15 µM and 15.1 µM | 29.3 µM and 30.1 µM | 1.51 µM and 1.72 µM | 3.17 | 2.8 µM and 11.5 µM | 7.98 µM and 23.9 µM
4 | N=C1C(c2nc3ccccc3s2)=C(O)CN1c1cc(Cl)cc(Cl)c1 | > 100 µM | > 100 µM | 88.2 µM | > 100 µM | > 100 µM | > 100 µM | 32.3 µM | > 100 µM | > 100 µM | > 100 µM | > 100 µM | > 100 µM | > 100 µM | > 100 µM | 23.6 µM | > 100 µM | 87.2 µM | > 100 | 91.3 µM | > 100 µM
5 | Nc1ccc(C(=O)Nc2ccccc2N)cc1 |  | > 100 µM |  | > 100 µM |  | > 100 µM |  | > 100 µM |  | 17.6 µM |  | > 100 µM |  | 39.7 µM |  | > 100 µM |  | > 90.7 |  | > 100 µM
